# Values quoted from earlier work in US20120141611A1, “METHODS AND COMPOSITIONS USING ERGOTHIONEINE TO TREAT A VARIETY OF HEALTH RELATED FACTORS” (Oxis International Inc., priority 2010, published 2012).
# Where “and” joins values, the source holds several entries; their conditions need not be identical. Equal entries are not always repeated. Where two headings read alike, the source gives them in different places.
# What was measured:
# isolated rabbit heart = settings: cited from earlier work
# [1] = physiologic pH, does not auto-oxidize; cited from earlier work
# human platelets = human platelets in vitro; cited from earlier work
# A549 cells = settings: cited from earlier work
# erythrocyte membrane = settings: cited from earlier work
# [2] = animal experimental model of diabetes; cited from earlier work
# [3] = cited from earlier work
# [4] = cited from earlier work; remark: listed apart in the source
# [5] = Dog, cited from earlier work
# hepatic microsomes = settings: NADPH or ascorbic acid challenge; cited from earlier work
# [6] = cited from earlier work; remark: listed apart in the source
# erythrocytes = settings: added to hemolyzed erythrocytes or erythrocyte suspensions; cited from earlier work
# isolated rat heart = settings: 0.1 mM; cited from earlier work
# [7] = rat; cited from earlier work
# [8] = <1 nmol/gm liver versus dietary-augmented animals 1400 nmol/gm liver; cited from earlier work
# [9] = Pig; cited from earlier work
smiles,measurement,setting,value
"C[N+](C)(C)[C@@H](Cc1c[nH]c(=S)[nH]1)C(=O)[O-] [Ergothioneine, ergothioneine]",Protection against ischemia-reperfusion injury,isolated rabbit heart,failed to protect
same,Stability in aqueous solution,[1],very stable in aqueous solution
same,CO2 production from pyruvate,human platelets,increases in CO2 production from pyruvate
same,Production of lactate,human platelets,decreased production of lactate
same,H2O2 and TNF-alpha imposed oxidative stress in IL-8-CAT reporter system,A549 cells,inhibits
same,Amount directly penetrating the erythrocyte membrane,erythrocyte membrane,< 1%
same,Developmental defects of embryos,[2],reverse the developmental defects to almost that of the control group
same,Concentration of LE in tissue,"[3]; Cat, Heart",0.0 mgs/100 gm fresh tissue
same,Concentration of LE in tissue,"[3]; Cat, Kidney",3.1 mgs/100 gm fresh tissue
same,Concentration of LE in tissue,"[3]; Cat, Liver",2.7 mgs/100 gm fresh tissue
same,Concentration of LE in tissue,"[3]; Cat, Lungs",0.8 mgs/100 gm fresh tissue
same,Concentration of LE in tissue,"[3]; Cat, RBC",2.9 mgs/100 gm fresh tissue
same,Concentration of LE in tissue,"[3]; Cat, Testes",0.0 mgs/100 gm fresh tissue
same,Concentration of l-ergothioneine in the blood,[3]; Cat,0.5-2 mg/100 ml blood
same,Ergothioneine in brain,[3]; brains of cats,3.0 µg/g
same,Concentration of LE in the lens of the human eye,[4]; Hypermature cataract,60.8 mg LE/100 gm and 60.8 +/− 9.8 mg LE/100 gm
same,Concentration of LE in the lens of the human eye,[4]; Immature cortical cataract,79.6 mg LE/100 gm and 79.4 +/− 11.7 mg LE/100 gm
same,Concentration of LE in the lens of the human eye,[4]; Immature nuclear cataract,94.2 mg LE/100 gm and 94.2 +/− 7.3 mg LE/100 gm
same,Concentration of LE in the lens of the human eye,[4]; Mature cataract,71.7 mg LE/100 gm and 71.7 +/− 13.7 mg LE/100 gm
same,Concentration of LE in the lens of the human eye,[4]; Normal lens,115.7 mg LE/100 gm and 115.7 +/− 6.3 mg LE/100 gm
same,Concentration of LE in tissue,[5]; Heart,8.9 mgs/100 gm fresh tissue
same,Concentration of LE in tissue,[5]; Kidney,1.6 mgs/100 gm fresh tissue
same,Concentration of LE in tissue,[5]; Liver,0.9 mgs/100 gm fresh tissue
same,Concentration of LE in tissue,[5]; Lungs,0.6 mgs/100 gm fresh tissue
same,Concentration of LE in tissue,[5]; RBC,6.6 mgs/100 gm fresh tissue
same,Concentration of LE in tissue,[5]; Spleen,1.1 mgs/100 gm fresh tissue
same,Concentration of LE in tissue,[5]; Testes,0.0 mgs/100 gm fresh tissue
same,Concentration of l-ergothioneine in the blood,[5],3-6 mg/100 ml blood
same,NADPH-dependent enzymatic lipid peroxidation,hepatic microsomes,inhibits
same,Concentration of l-ergothioneine in the blood,[6]; Man,1-4 mg/100 ml blood
same,Levels in human blood cells,[6]; healthy males from Saudi Arabia,1-4 mg/100 mL
same,Lactate production,erythrocytes,increased lactate production
same,Protection against reperfusion injury as measured by LDH release,isolated rat heart,protected the isolated rat heart against reperfusion injury
same,Whole body half-life,[7],approximately 30 days
same,Increase in hepatic lipid peroxidation in partially LE-deficient rats,[8],40%
same,Concentration of l-ergothioneine in the blood,[9],3-27 mg/100 ml blood
